The results in this text go back to ChEMBL document CHEMBL5727053, “Muscarinic M1 receptor positive allosteric modulators” (2019).

This assay has as its target T1, Muscarinic acetylcholine receptor M1 (Homo sapiens, UniProt P11229).
T1 sequence (P11229 whole entry): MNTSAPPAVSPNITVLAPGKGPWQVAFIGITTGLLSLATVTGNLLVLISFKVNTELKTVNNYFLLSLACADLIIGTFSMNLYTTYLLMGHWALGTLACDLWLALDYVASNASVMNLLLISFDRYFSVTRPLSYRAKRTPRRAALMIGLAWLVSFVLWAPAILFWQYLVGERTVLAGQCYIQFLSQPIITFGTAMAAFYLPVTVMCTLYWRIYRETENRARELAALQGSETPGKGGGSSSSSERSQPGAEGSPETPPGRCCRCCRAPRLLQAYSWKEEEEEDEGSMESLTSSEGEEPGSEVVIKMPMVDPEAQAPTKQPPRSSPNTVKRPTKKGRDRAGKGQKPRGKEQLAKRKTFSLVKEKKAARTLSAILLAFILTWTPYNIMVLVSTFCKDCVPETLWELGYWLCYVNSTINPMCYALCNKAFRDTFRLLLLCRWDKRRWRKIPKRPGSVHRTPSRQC
The assay can be described thus: Determination of Allosteric Potency EC50 Values for Muscarinic M1 Receptor: A stable CHO cell line expressing recombinant human Muscarinic M1 receptor and pCRE-Luc reporter system was used for cell-based assay. The assay offers a non-radioactive based approach to determine binding of a compound to GPCRs. In this specific assay, the level of intracellular cyclic AMP which is modulated by activation or inhibition of the receptor is measured. The recombinant cells harbor luciferase reporter gene under the control of cAMP response element.The above cells were grown in 96 well clear bottom white plates in Hams F12 medium containing 10% fetal bovine serum (FBS). Prior to the addition of compounds or standard agonist, cells were serum starved overnight. Increasing concentrations of test compounds were added along with EC20 of acetylcholine in OptiMEM medium to the cells. The incubation was continued at 37° C. in CO2 incubator for 4 hours. Medium was removed and cells were washed with phosphate buffered saline. The cells were lysed and luciferase activity was measured in a Luminometer. Luminescence units were plotted against the compound concentrations using Graphpad software. EC50 values of the compounds were defined as the concentration required in stimulating the luciferase activity by 50% in presence of EC20 of acetylcholine.

`O=C(N[C@H]1CCCC[C@@H]1O)C1=CN(Cc2ccccc2)c2cccnc2O1`: the EC50 is 1000 nM.
